# Source: patent US9364496B2 (ONCOGENEX TECHNOLOGIES INC., priority 2013, dated 2016)
# Several values for one entry are separate records, joined by “and”; a condition that tells them apart may be missing. Equal entries are not always repeated. Oligonucleotides are written 5' to 3', each unit as a sugar letter and its base; * is a phosphorothioate linkage, no mark a phosphodiester; rarer units and linkages stand in square brackets, end groups in braces. Plain capitals give the bases only. e = 2'-O-(2-methoxyethyl) (MOE); [5mC] = 5-methylcytosine; d = 2'-deoxy (DNA)
# Assays:
# [1] = system: RPMI 8226 (human myeloma) xenograft; assay: In vivo activity of custirsen with Velcade, RPMI 8226 xenograft (Example 14); settings: for weight / Δ weight / volume / Δ volume / % of baseline / Δ %: later day (day not given); for volume / Δ volume: tumor; for % of baseline / Δ %: weight
# Protocol: The cells were implanted subcutaneously into female SCID mice with 7×10^6 cells inoculum.
# Tumors and body weights were measured weekly until termination of the study on day 71. Response to treatment was evaluated for tumor growth inhibition (TGI) and tumor growth delay (TGD).
# 70 CB.17 SCID female mice, 4-6 weeks old, 16-20 grams, obtained from Harlan animal breeding center.
# Sample from the cell suspension was taken for counting (0.3 ml in duplicates for CEDEX) before spun down. Cell viability was 85.6% and live cell concentration was 167×10^5 cells/ml. The pellet was resuspended in HBSS to a final volume of 8 ml.
# Tumors were implanted subcutaneously with RPMI-8226 cells into the right flank of the mouse on Day 0. Each animal received a s.c. injection 7×10^6 cells in 0.1 ml suspension. On day 20, mice were sorted by the optimal tumor volume ([…]) and were allocated into 5 groups of 10 mice. Mice were individually tagged and their tumor volume and body weight were monitored weekly during the study. Tumor size was measured by caliper and calculated using the formula: […]
# The treatment started on […] (0.2 ml per 20 grams v/w) and continued till day 52, after which the remaining mice were left for observation until day 71.
# renal cancer = type: in vivo, human; settings: each group; loading doses then custirsen with a chemotherapeutic agent
# Source text: At least 50 renal cancer patients are separated into two groups.
# [2] = human, in vivo
# [3] = Phase I dose-escalation Study OGX-011-01, custirsen with neoadjuvant hormone therapy, prostate cancer patients; settings: 40 mg to 640 mg custirsen, repeated doses with neoadjuvant hormone therapy
# [4] = OGX 40 ip qd*5, twk, group Mean, n 9, vs Day 20
# [5] = OGX 40 ip qd*5, twk, group Mean, n 10
# [6] = OGX 40 ip qd*5, twk, group Mean, n 10, vs Day 20
# [7] = OGX 40 ip qd*5, twk, individual mouse, listed as OGX
# [8] = OGX 40 ip qd*5, twk, individual mouse, vs Day 20, listed as OGX
# [9] = OGX 40 ip qd*5, twk, group mean
substance,measurement,setting,value
"Custirsen: anti-clusterin antisense oligonucleotide CAGCAGCAGAGTCTTCATCAT, phosphorothioate backbone, 2′-O-methoxyethyl at nucleotides 1-4 and 18-21, 5-methylcytosines at 1, 4, 19 (antisense e[5mC]*eA*eG*e[5mC]*dA*dG*dC*dA*dG*dA*dG*dT*dC*dT*dT*dC*dA*eT*e[5mC]*eA*eT; listed as Homo sapiens)",Day 45 Δ volume,[1]; [4],381.9
same,Day 45 Δ weight,[1]; [4],1.0
same,Day 20 volume,[1]; [5],142.8
same,Day 20 weight,[1]; [5],18.5
same,Day 27 % of baseline (weight),[1]; [5],102.6%
same,Day 27 volume,[1]; [5],219.2
same,Day 27 weight,[1]; [5],19.0
same,Day 34 % of baseline (weight),[1]; [5],95.3%
same,Day 34 volume,[1]; [5],263.1
same,Day 34 weight,[1]; [5],17.7
same,Day 27 Δ % (weight),[1]; [6],2.6%
same,Day 27 Δ volume,[1]; [6],76.4
same,Day 27 Δ weight,[1]; [6],0.4
same,Day 34 Δ % (weight),[1]; [6],−4.7%
same,Day 34 Δ volume,[1]; [6],120.3
same,Day 34 Δ weight,[1]; [6],−0.8
same,Day 20 volume,[1]; [7],119 and 124 and 125 and 139 and 141 and 145 and 151 and 155 and 162 and 169
same,Day 20 weight,[1]; [7],16.1 and 17.7 and 17.1 and 20.6 and 19.7 and 18.6 and 18.4 (2×) and 20.0 and 18.9
same,Day 27 % of baseline (weight),[1]; [7],113.2% and 102.5% and 100.3% and 98.7% and 102.4% and 101.7% and 100.5%
same,Day 27 volume,[1]; [7],96 and 207 and 171 and 249 and 222 and 246 and 319 and 193 and 217 and 271
same,Day 27 weight,[1]; [7],18.2 (2×) and 18.0 and 20.8 and 19.7 and 18.4 and 18.9 and 20.3 and 18.6 and 19.0
same,Day 34 % of baseline (weight),[1]; [7],84.3% and 98.1% and 99.6% and 94.5% and 97.3% and 96.5% and 98.9% and 95.3% and 93.3% and 95.4%
same,Day 34 volume,[1]; [7],98 and 244 and 223 and 257 and 305 and 336 and 371 and 220 and 266 and 312
same,Day 34 weight,[1]; [7],13.5 and 17.4 and 17.1 and 19.5 and 19.1 and 18.0 (2×) and 18.2 and 19.0 and 17.2
same,Day 41 % of baseline (weight),[1]; [7],100.4% and 100.3% and 99.5% and 95.8% and 100.1% and 104.4% and 101.6%
same,Day 41 volume,[1]; [7],454 and 474 and 560 and 267 and 320 and 457 and 410 and 295 and 322
same,Day 41 weight,[1]; [7],19.8 and 18.7 and 19.5 and 19.9 and 17.6 and 18.9 and 18.8 and 17.9 and 20.9
same,Day 45 % of baseline (weight),[1]; [7],104.1% and 102.7% and 111.4% and 101.5% and 108.1% and 109.8%
same,Day 45 volume,[1]; [7],587 and 584 and 826 and 467 and 428 and 490 and 511 and 272 and 579
same,Day 45 weight,[1]; [7],20.5 and 19.1 (2×) and 20.6 and 21.1 and 18.7 and 19.2 and 18.8 and 21.9
same,Day 27 Δ % (weight),[1]; [8],13.2% and 2.5% and 4.8% and 1.1% and 0.3% and −1.3% and 2.4% and 1.7% and 0.8% and 0.5%
same,Day 27 Δ volume,[1]; [8],−23.1 and 84.0 and 46.2 and 110.4 and 81.2 and 100.3 and 168.8 and 38.8 and 55.3 and 102.6
same,Day 27 Δ weight,[1]; [8],2.1 and 0.4 (2×) and 0.8 and 0.2 (2×) and 0.1 (2×) and −0.3 and 0.3
same,Day 34 Δ % (weight),[1]; [8],−15.7% and −1.9% and −0.4% and −5.5% and −2.7% and −3.5% and −1.1% and −4.7% and −6.7% and −4.6%
same,Day 34 Δ volume,[1]; [8],−20.6 and 120.3 and 97.9 and 117.8 and 163.9 and 190.8 and 219.9 and 65.4 and 104.3 and 142.9
same,Day 34 Δ weight,[1]; [8],−2.5 and −0.3 and −0.1 and −1.1 and −0.5 and −0.6 and −0.2 and −0.9 (2×) and −1.2
same,Day 41 Δ % (weight),[1]; [8],0.4% and 0.3% and 5.9% and −0.5% and −4.2% and 0.1% and 6.0% and 4.4% and 1.6%
same,Day 41 Δ volume,[1]; [8],313.0 and 328.4 and 409.6 and 112.3 and 157.8 and 288.2 and 286.2 and 170.4 and 183.5
same,Day 41 Δ weight,[1]; [8],0.1 (2×) and 1.1 (2×) and −0.1 and −0.8 and 0.0 and 0.8 and 0.3
same,Day 45 Δ % (weight),[1]; [8],4.1% and 2.7% and 11.4% and 5.6% and 1.5% and 1.3% and 8.1% and 9.8% and 6.1%
same,Day 45 Δ volume,[1]; [8],446.1 and 439.0 and 675.2 and 313.0 and 266.0 and 321.7 and 388.0 and 147.2 and 440.5
same,Day 45 Δ weight,[1]; [8],0.8 and 0.5 and 2.1 and 1.1 and 0.3 and 0.2 and 1.4 and 1.7 and 1.3
same,weight,[1]; [9],20.5
same,Δ weight,[1]; [9],1.6
same,volume,[1]; [9],1717.4
same,Δ volume,[1]; [9],1572.6
same,% of baseline,[1]; [9],108.3%
same,Δ %,[1]; [9],8.3%
same,weight,[1]; [7],21.04 and 22.19 and 19.81 and 20.11
same,Δ weight,[1]; [7],1.4 (2×) and 2.2 and 1.2
same,volume,[1]; [7],2185 and 1918 and 1519 and 2426
same,Δ volume,[1]; [7],2043.7 and 1763.0 and 1357.1 and 2257.1
same,% of baseline,[1]; [7],106.9% and 111.2% and 107.7% and 106.4%
same,Δ %,[1]; [7],6.9% and 11.2% and 7.7% and 6.4%
same,mice died,"[1]; custirsen 40 mg/kg group, day 34",one
same,injections given before treatment was stopped due to toxicity,"[1]; custirsen 40 mg/kg, both groups (5 consecutive + 2 on the next week)",7 injections
same,tumor growth inhibition by the end of the study,"[1]; custirsen 40 mg/kg, either alone or in combination",significantly inhibited tumor growth
same,cancer condition of patients,renal cancer,improves
same,INR values,[2],≤ 1.5
same,"grade 1 increase in PTT, number",[2],1
same,hepatic transaminase elevations,[2],Grade 1 and 2
same,incidence of elevated liver function tests (ELFTs),[2],higher incidence
same,"dose limiting toxicities, deaths, AEs leading to withdrawal",[3],"No dose limiting toxicities, deaths, or adverse events (AEs) leading to withdrawal were reported"
